Structures can show the parent of a compound that is named as a salt. Where two headings read alike, the source gives them in different places.

Results on 12 compounds are retold here after patent US20130267494A1, “1,4-OXAZEPANE DERIVATIVES” (priority 2010, published 2013).

Test [1] concerns the target T1, human norepinephrine transporter (Homo sapiens, UniProt P23975).
T1 construct: expressed in transfected cells
Description: Inhibitory action on human norepinephrine transporter ([3H]-norepinephrine uptake in CHO cells). Type of test: cell-based. The settings on record: CHO, relative to inhibitory activity of 10 μM DMI as 100%. The procedure, abridged:
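Stably transfected CHO-K1 cells plated overnight, then given test compound and [3H]-norepinephrine (20 nM final, from 200 nM) in HEPES-buffered saline with 0.5% BSA for 45 min. After PBS washes, retained radioactivity counted by scintillation. Inhibition at 10 μM or 1 μM compound expressed relative to 10 μM DMI as 100%.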

The test system of another test is SD female rats. Description: Measurement of urethral resistance increasing effect (leak point pressure, oral administration). Type of test: in vivo, rat. The method, then: The urethral resistance increasing effect in rat was measured by a modified method of Matsumoto et al. (WO2009/063992) as follows. That is, SD female rats (CLEA Japan, Inc.) were anesthetized with isoflurane (1.0%; Abbott), and the spinal cord was transected at Th8-9 to avoid the voiding reflex. After laparotomy, an intravesical pressure measurement catheter and a saline infusion catheter (PE-100; Clay Adams) were inserted into the bladder. Thereafter, the abdomen of the rat was closed with aronalpha A “Sankyo” (Daiichi Sankyo). The rat with an inserted catheter was placed in a Bollman cage (KN-326 Bollman cage TYPE III; Natsume). The intravesical pressure measurement catheter was connected to a computer via a pressure transducer (DX-100; Nihon Koden), an amplifier (RPM-6008M; Nihon Koden/303638; SAN-EI), and a multi-channel data analyzer (MP150/MP100; Biopack), and changes in the intravesical pressure were recorded on a hard disc at a frequency of 100 samples/sec. The saline infusion catheter was connected to a 50 mL syringe (Terumo) filled with saline colored with Evans Blue (Wako). The saline was infused into the bladder from the 50 mL syringe filled with saline at a rate of 0.1 mL/sec by using an infusion pump (Kds100; KD Scientific). When the saline leaked from the urethral orifice, infusion was discontinued, and the saline in the bladder was released. The maximum pressure observed during infusion of saline into the bladder and leakage thereof was taken as an LPP (Leak point pressure) value. The measurement was repeated until the LPP value was stabilized, and an average of continuous three stable LPP values was taken as the result. In addition, the measurement of drug effect was started 1 hr after the animal was placed in the Bollman cage. The LPP value (Pre value) was measured, a drug was orally administered, and the measurement of LPP value (Post value) was again started 15 min, 30 min, 1 hr, 2 hr and 4 hr after administration. The urethral resistance increasing effect by the drug was shown by the difference between the LPP value (Post value) and LPP value (Pre value). The drug was orally administered at 2.0 mL/kg, using 0.5% methylcellulose as a vehicle. For detection of a significant difference in the urethral resistance increasing effect by the drug as compared to the vehicle, the following method was used. For comparison of 3 or more groups, the Williams' test was used for a parametric test, and the Shirley-Williams' test was used for a non-parametric test. For comparison of 2 groups, the Student's t-test was used for a parametric test, and the […] was used for a non-parametric test.

The mark [2] stands for this setting: read-out: inhibitory rate (%), compound 1 μM.
[3] abbreviates: compound 1 μM, read-out: inhibitory rate (%).

T1 sequence (P23975 whole entry): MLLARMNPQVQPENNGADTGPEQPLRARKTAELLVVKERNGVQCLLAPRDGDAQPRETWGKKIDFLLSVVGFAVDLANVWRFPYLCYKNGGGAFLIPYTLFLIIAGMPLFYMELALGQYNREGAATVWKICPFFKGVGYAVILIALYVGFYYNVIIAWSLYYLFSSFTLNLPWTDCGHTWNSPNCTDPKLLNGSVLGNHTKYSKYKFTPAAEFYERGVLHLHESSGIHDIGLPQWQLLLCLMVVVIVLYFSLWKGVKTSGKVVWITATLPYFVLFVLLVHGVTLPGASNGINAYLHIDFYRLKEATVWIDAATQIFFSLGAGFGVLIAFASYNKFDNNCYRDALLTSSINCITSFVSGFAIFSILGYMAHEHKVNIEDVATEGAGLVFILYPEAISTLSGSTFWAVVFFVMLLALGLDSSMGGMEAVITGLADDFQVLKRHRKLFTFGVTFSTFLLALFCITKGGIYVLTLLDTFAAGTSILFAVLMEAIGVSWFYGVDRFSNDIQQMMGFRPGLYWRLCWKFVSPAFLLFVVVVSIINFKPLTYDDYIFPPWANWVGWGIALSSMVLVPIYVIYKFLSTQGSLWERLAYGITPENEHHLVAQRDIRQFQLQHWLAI

Turning to `CC(=O)NC[C@H]1CNCCO[C@@H]1c1ccc(Cl)c(Cl)c1` (racemic) [Example 6, N-{[(6RS,7SR)-7-(3,4-dichlorophenyl)-1,4-oxazepan-6-yl]methyl}acetamide monohydrochloride], in test [1] (setting [2]), the inhibition at 1 µM was found to be 95%. Further, in test [1] (read-out: inhibitory rate (%), compound 10 μM), the inhibition at 10 µM came to 97%.

Consider `O=c1[nH]c(-c2cccn(C[C@@H]3CNCCO[C@H]3c3ccc(Cl)c(Cl)c3)c2=O)no1` [Example 31, 1-{[(6S,7R)-7-(3,4-dichlorophenyl)-1,4-oxazepan-6-yl]methyl}-3-(5-oxo-4,5-dihydro-1,2,4-oxadiazol-3-yl)pyridin-2(1H)-one monohydrochloride], for which the inhibition at 1 µM in test [1] (setting [3]) worked out at 108%. Moreover, the “urethral resistance increasing effect (cmH2O)” value in the test on SD female rats (1.0 mg/kg oral, 15 min later) is 6.7 ± 2.5 cmH2O; in the test on SD female rats (1.0 mg/kg oral, 30 min later), 9.0 ± 3.8 cmH2O; with SD female rats (3.0 mg/kg oral, 15 min later), 13.2 ± 3.8 cmH2O; with SD female rats (3.0 mg/kg oral, 30 min later) it was 14.5 ± 3.6 cmH2O; in the test with SD female rats (10.0 mg/kg oral, 15 min later), 16.2 ± 2.1 cmH2O; in the test with SD female rats (10.0 mg/kg oral, 30 min later), 14.3 ± 2.2 cmH2O.

`CC(=O)NC[C@@H]1CNCCO[C@H]1c1ccc(Cl)c(Cl)c1` [Example 32, N-{[(6S,7R)-7-(3,4-dichlorophenyl)-1,4-oxazepan-6-yl]methyl}acetamide 0.5 fumarate]: the inhibition at 1 µM in test [1] (setting [2]) amounted to 93%. Besides, the “urethral resistance increasing effect (cmH2O)” value in the test with SD female rats (10.0 mg/kg oral, 15 min later) came to 18.3 ± 2.1 cmH2O; in the test with SD female rats (10.0 mg/kg oral, 30 min later), 17.1 ± 3.2 cmH2O.

With `COCC(=O)NC[C@@H]1CNCCO[C@H]1c1ccc(Cl)c(Cl)c1` [Example 33, N-{[(6S,7R)-7-(3,4-dichlorophenyl)-1,4-oxazepan-6-yl]methyl}-2-methoxyacetamide monohydrochloride], the inhibition at 1 µM in test [1] (setting [3]) worked out at 100%. The “urethral resistance increasing effect (cmH2O)” value in the test on SD female rats (10.0 mg/kg oral, 15 min later) amounted to 21.8 ± 3.3 cmH2O; in the test on SD female rats (10.0 mg/kg oral, 30 min later), 20.9 ± 3.4 cmH2O.

As to `CC(=O)N[C@@H]1CNCCO[C@H]1c1ccc(Cl)c(Cl)c1` [Example 36, N-[(6R,7S)-7-(3,4-dichlorophenyl)-1,4-oxazepan-6-yl]acetamide monofumarate], the inhibition at 1 µM in test [1] (setting [2]) is 101%. Also, the “urethral resistance increasing effect (cmH2O)” value in the test with SD female rats (10.0 mg/kg oral, 15 min later) was 15.0 ± 1.8 cmH2O; with SD female rats (10.0 mg/kg oral, 30 min later), 14.3 ± 1.8 cmH2O.

As for `NS(=O)(=O)N[C@@H]1CNCCO[C@H]1c1ccc(Cl)c(Cl)c1` [Example 37, N-[(6R,7S)-7-(3,4-dichlorophenyl)-1,4-oxazepan-6-yl]sulfamide monohydrochloride], the inhibition at 1 µM in test [1] (setting [3]) amounted to 102%. Further, the “urethral resistance increasing effect (cmH2O)” value was 8.5 ± 1.4 cmH2O with SD female rats (3.0 mg/kg oral, 15 min later); 7.6 ± 1.6 cmH2O in the test on SD female rats (3.0 mg/kg oral, 30 min later); 16.3 ± 1.2 cmH2O in the test on SD female rats (10.0 mg/kg oral, 15 min later); 17.2 ± 1.9 cmH2O in the test on SD female rats (10.0 mg/kg oral, 30 min later).

On to `COCC(=O)NC[C@@H]1CNCCO[C@H]1c1ccc(Cl)c(F)c1` [Example 38, N-{[(6S,7R)-7-(4-chloro-3-fluorophenyl)-1,4-oxazepan-6-yl]methyl}-2-methoxyacetamide monohydrochloride], for which the inhibition at 1 µM in test [1] (setting [3]) amounted to 102%. In addition, the “urethral resistance increasing effect (cmH2O)” value was determined as 4.2 ± 1.7 cmH2O in the test on SD female rats (0.3 mg/kg oral, 15 min later); 5.1 ± 1.7 cmH2O with SD female rats (0.3 mg/kg oral, 30 min later); 12.9 ± 3.3 cmH2O in the test on SD female rats (1.0 mg/kg oral, 15 min later); 9.3 ± 1.6 cmH2O in the test with SD female rats (1.0 mg/kg oral, 30 min later); 18.0 ± 2.5 cmH2O with SD female rats (3.0 mg/kg oral, 15 min later); 17.4 ± 2.4 cmH2O in the test on SD female rats (3.0 mg/kg oral, 30 min later). Moreover, the “urethral resistance increasing effect (cmH2O)” value turned out to be 21.6 ± 2.9 cmH2O in the test with SD female rats (10.0 mg/kg oral, 15 min later) and 21.3 ± 3.3 cmH2O in the test on SD female rats (10.0 mg/kg oral, 30 min later).

`[2H]C([2H])([2H])OCC(=O)NC[C@@H]1CNCCO[C@H]1c1ccc(Cl)c(F)c1` [Example 39, N-{[(6S,7R)-7-(4-chloro-3-fluorophenyl)-1,4-oxazepan-6-yl]methyl}-2-[(^2H3)methyloxy]acetamide monohydrochloride]: the inhibition at 1 µM in test [1] (setting [3]) amounted to 102%. The “urethral resistance increasing effect (cmH2O)” value in the test with SD female rats (1.0 mg/kg oral, 15 min later) is recorded as 12.3 ± 2.2 cmH2O; with SD female rats (1.0 mg/kg oral, 30 min later), 8.7 ± 2.6 cmH2O; with SD female rats (3.0 mg/kg oral, 15 min later) it was 15.8 ± 1.7 cmH2O; in the test on SD female rats (3.0 mg/kg oral, 30 min later) it was 14.1 ± 1.5 cmH2O; with SD female rats (10.0 mg/kg oral, 15 min later) it was 17.9 ± 1.8 cmH2O; with SD female rats (10.0 mg/kg oral, 30 min later), 17.1 ± 2.3 cmH2O.

With `CCOCC(=O)NC[C@@H]1CNCCO[C@H]1c1ccc(Cl)c(F)c1` [Example 40, N-{[(6S,7R)-7-(4-chloro-3-fluorophenyl)-1,4-oxazepan-6-yl]methyl}-2-ethoxyacetamide monohydrochloride], the inhibition at 1 µM in test [1] (setting [3]) is 104%. Further, the “urethral resistance increasing effect (cmH2O)” value with SD female rats (1.0 mg/kg oral, 15 min later) is reported as 8.5 ± 1.9 cmH2O; with SD female rats (1.0 mg/kg oral, 30 min later), 8.6 ± 2.6 cmH2O; with SD female rats (3.0 mg/kg oral, 15 min later), 11.4 ± 1.9 cmH2O; in the test with SD female rats (3.0 mg/kg oral, 30 min later), 12.8 ± 1.6 cmH2O; in the test on SD female rats (10.0 mg/kg oral, 15 min later), 16.6 ± 2.0 cmH2O; with SD female rats (10.0 mg/kg oral, 30 min later) it was 17.2 ± 2.2 cmH2O.

`CC(C)OCC(=O)NC[C@@H]1CNCCO[C@H]1c1ccc(Cl)c(F)c1` [Example 41, N-{[(6S,7R)-7-(4-chloro-3-fluorophenyl)-1,4-oxazepan-6-yl]methyl}-2-(1-methylethoxy)acetamide monohydrochloride]: in test [1] (setting [3]), the inhibition at 1 µM came to 101%. The “urethral resistance increasing effect (cmH2O)” value turned out to be 9.8 ± 3.8 cmH2O in the test on SD female rats (3.0 mg/kg oral, 15 min later); 9.6 ± 2.3 cmH2O with SD female rats (3.0 mg/kg oral, 30 min later); 17.8 ± 1.6 cmH2O in the test with SD female rats (10.0 mg/kg oral, 15 min later); 16.1 ± 1.5 cmH2O with SD female rats (10.0 mg/kg oral, 30 min later).

For the compound `O=c1[nH]c(-c2cccn(C[C@@H]3CNCCO[C@H]3c3ccc(Cl)c(F)c3)c2=O)no1` [Example 43, 1-{[(6S,7R)-7-(4-chloro-3-fluorophenyl)-1,4-oxazepan-6-yl]methyl}-3-(5-oxo-4,5-dihydro-1,2,4-oxadiazol-3-yl)pyridin-2(1H)-one monohydrochloride], the inhibition at 1 µM in test [1] (setting [2]) came to 102%. The “urethral resistance increasing effect (cmH2O)” value in the test on SD female rats (3.0 mg/kg oral, 15 min later) is listed as 8.4 ± 3.0 cmH2O; with SD female rats (3.0 mg/kg oral, 30 min later), 11.8 ± 2.8 cmH2O; with SD female rats (10.0 mg/kg oral, 15 min later), 13.9 ± 2.1 cmH2O; with SD female rats (10.0 mg/kg oral, 30 min later), 14.8 ± 0.9 cmH2O.

Consider `O=C(O)c1cccn(C[C@@H]2CNCCO[C@H]2c2ccc(Cl)c(F)c2)c1=O` [Example 44, 1-{[(6S,7R)-7-(4-chloro-3-fluorophenyl)-1,4-oxazepan-6-yl]methyl}-2-oxo-1,2-dihydropyridine-3-carboxylic acid monohydrochloride], for which the inhibition at 1 µM in test [1] (setting [3]) was found to be 102%. Besides, the “urethral resistance increasing effect (cmH2O)” value with SD female rats (0.3 mg/kg oral, 15 min later) is listed as 0.1 ± 2.5 cmH2O; with SD female rats (0.3 mg/kg oral, 30 min later), 2.2 ± 2.6 cmH2O; in the test on SD female rats (1.0 mg/kg oral, 15 min later) it was 8.6 ± 2.6 cmH2O; in the test on SD female rats (1.0 mg/kg oral, 30 min later), 9.8 ± 2.6 cmH2O; in the test on SD female rats (3.0 mg/kg oral, 15 min later), 15.5 ± 3.7 cmH2O; in the test on SD female rats (3.0 mg/kg oral, 30 min later), 13.7 ± 3.3 cmH2O. For the same compound, the “urethral resistance increasing effect (cmH2O)” value is recorded as 18.8 ± 1.5 cmH2O in the test with SD female rats (10.0 mg/kg oral, 15 min later) and 16.4 ± 1.5 cmH2O in the test with SD female rats (10.0 mg/kg oral, 30 min later).
